Experimental data from paper PMC5477519, “Leukocyte integrin Mac-1 regulates thrombosis via interaction with platelet GPIbα” (Nature Communications, 2017).

Assays:
[1] = target: T1, αMI-domain double mutant of integrin Mac-1 (αMβ2, CD11b/CD18) (Homo sapiens, UniProt P11215, R232A/T229A); assay: SPR (Biacore […], ~[…] RU, steady-state affinity); low-level binding, no consistent interaction at ~[…] RU
T1 construct: gene ITGAM; αMI-domain, human mutant

[2] = target: T2, αMI-domain of integrin Mac-1 (αMβ2, CD11b/CD18) (Homo sapiens, UniProt P11215); assay: SPR (Biacore […], CM5 chip, steady-state affinity); supported by inhibition of GPIbα binding to αMI-domain (IC50 […])
T2 construct: gene ITGAM; αMI-domain, human WT
T2 sequence (P11215 150-328 limits assumed): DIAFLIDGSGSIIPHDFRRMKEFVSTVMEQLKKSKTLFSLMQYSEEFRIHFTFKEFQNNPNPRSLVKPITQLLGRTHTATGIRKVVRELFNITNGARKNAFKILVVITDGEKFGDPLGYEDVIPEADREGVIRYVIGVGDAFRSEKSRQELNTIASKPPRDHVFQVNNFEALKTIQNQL

T1 sequence (P11215 150-328 T229A/R232A limits assumed): as the sequence (P11215 150-328 limits assumed) above, with T80A, R83A counted along it

## N[C@H]1C(O)O[C@H](CO)[C@@H](O)[C@@H]1O (some centres unmarked) [glucosamine]
[1]
  Kd: ~244 µM
[2]
  Kd: ~100 µM
